Data from US11091501B2, “Heterocyclic compounds as RSV inhibitors” (Enanta Pharmaceuticals, Inc., priority 2017, dated 2021).

These molecules were tested on Human RSV-A (“Long” strain) (assay: RSV in vitro cytoprotection assay (CPE, ATPlite) in HEp-2 cells). Conditions: human respiratory syncytial virus, 96 h; HEp-2 cells, 4-day incubation, ATPlite readout; read-out: Human RSV-A (“Long” strain) EC50.
Assay type: cell-based
Procedure, shortened: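 HEp-2 cells (8,000/well) given 2-fold serial compound dilutions in duplicate, then infected with sucrose-stabilised RSV-A Long stock. After 4 days, cell viability read by ATPlite luminescence, with a parallel uninfected plate for cytotoxicity. EC50 binned A<0.01 μM, B 0.01-0.05 μM, C>0.05 μM.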

EC50	Compound
< 0.01 µM	Cc1cnc(N2CC3(CCOCC3)C2)c(C(=O)Nc2ccc(C(=O)N3CCc4cc(-c5ccncc5F)sc4-c4ccc(F)cc43)cc2)c1 [Example 162]
0.01 to 0.05 µM	Cc1cnc(N2CC3(CCOCC3)C2)c(C(=O)Nc2ccc(C(=O)N3CCc4cc(-c5nnnn5C)sc4-c4ccc(F)cc43)cc2)c1 [Example 195]
< 0.01 µM	Cc1cnc(N2CC3(CCOCC3)C2)c(C(=O)Nc2ccc(C(=O)N3CCc4c(sc(C(=O)Nc5ccc(F)cc5F)c4F)-c4ccccc43)cc2)c1 [Example 209]
< 0.01 µM	Cc1cnc(N2CC3(CCOCC3)C2)c(C(=O)Nc2ccc(C(=O)N3CCc4cc(-c5ccc(=O)[nH]c5)sc4-c4ccc(F)cc43)cc2)c1 [Example 184]
< 0.01 µM	Cc1cnc(N2CC3(CCOCC3)C2)c(C(=O)Nc2ccc(C(=O)N3CCc4c(sc(C(=O)Nc5c(C)cccc5C#N)c4F)-c4ccccc43)cc2)c1 [Example 204]
< 0.01 µM	Cc1cnc(N2CC3(CCOCC3)C2)c(C(=O)Nc2ccc(C(=O)N3CCc4c(sc(-c5nnco5)c4F)-c4ccc(F)cc43)cc2)c1 [Example 143]
0.01 to 0.05 µM	Cc1cnc(N2CC3(CCOCC3)C2)c(C(=O)Nc2ccc(C(=O)N3CCc4cc(NC(=O)OC5CCCCC5)sc4-c4ccccc43)cc2)c1 [Example 294]
0.01 to 0.05 µM	Cc1ccc(C(=O)Nc2ccc(C(=O)N3CCc4c(sc(NC(=O)c5c(F)cccc5Cl)c4F)-c4ccccc43)cc2)c(N2CC3(CCOCC3)C2)n1 [Example 309]
< 0.01 µM	Cc1cnc(NC(=O)c2sc3c(c2F)CCN(C(=O)c2ccc(NC(=O)c4cc(C)cnc4N4CC5(CCOCC5)C4)cc2)c2ccccc2-3)c(F)c1 [Example 230]
> 0.05 µM	Cc1cnc(N2CC3(CCOCC3)C2)c(C(=O)Nc2ccc(C(=O)N3CCc4cc(NS(=O)(=O)c5c(F)cccc5F)sc4-c4ccccc43)cc2)c1 [Example 288]
> 0.05 µM	Cc1cnc(N2CC3(CCOCC3)C2)c(C(=O)Nc2ccc(C(=O)N3CCc4cc(NS(=O)(=O)c5c(F)cccc5Cl)sc4-c4ccccc43)cc2)c1 [Example 291]
0.01 to 0.05 µM	O=C(Nc1c(F)cccc1Cl)c1cc2c(o1)-c1ccc(F)cc1N(C(=O)c1ccc(NC(=O)c3cc4c(nc3N3CC5(CCOCC5)C3)CCCC4)cc1)CC2 [Example 238]
< 0.01 µM	Cc1cnc(N2CC3(CCOCC3)C2)c(C(=O)Nc2ccc(C(=O)N3CCc4cc(C(=O)Nc5c(F)cccc5Cl)oc4-c4ccc(F)cc43)cc2)c1 [Example 237]
< 0.01 µM	Cc1cnc(N2CC3(CCOCC3)C2)c(C(=O)Nc2ccc(C(=O)N3CCc4cc(-c5cnsc5)sc4-c4ccc(F)cc43)cc2)c1 [Example 192]
< 0.01 µM	Cc1cnc(N2CC3(CCOCC3)C2)c(C(=O)Nc2ccc(C(=O)N3CCc4cc(-c5ccncc5)sc4-c4ccc(F)cc43)cc2)c1 [Example 166]
< 0.01 µM	Cc1cnc(N2CC3(CCOCC3)C2)c(C(=O)Nc2ccc(C(=O)N3CCc4c(sc(C(=O)Nc5c(F)cc(F)cc5Cl)c4F)-c4ccccc43)cc2)c1 [Example 199]
< 0.01 µM	Cc1cnc(N2CC3(CCOCC3)C2)c(C(=O)Nc2ccc(C(=O)N3CCc4c(sc(C(=O)Nc5ncncc5F)c4F)-c4ccccc43)cc2)c1 [Example 222]
> 0.05 µM	Cc1cnc(N2CC3(CCOCC3)C2)c(C(=O)Nc2ccc(C(=O)N3CCc4cc(NS(=O)(=O)c5c(C)cccc5F)sc4-c4ccccc43)cc2)c1 [Example 289]
0.01 to 0.05 µM	Cc1cnc(N2CC3(CCOCC3)C2)c(C(=O)Nc2ccc(C(=O)N3CCc4c(sc(C(=O)Nc5c(C)cccc5C)c4Cl)-c4ccccc43)cc2)c1 [Example 271]
0.01 to 0.05 µM	Cc1cnc(N2CC3(CCOCC3)C2)c(C(=O)Nc2ccc(C(=O)N3CCc4cc(-c5c[nH]c6cccnc56)sc4-c4ccc(F)cc43)cc2)c1 [Example 180]
< 0.01 µM	Cc1ccc(C(=O)Nc2ccc(C(=O)N3CCc4c(sc(C(=O)Nc5ncccc5F)c4F)-c4ccccc43)cc2)c(N2CC3(CCOCC3)C2)n1 [Example 218]
0.01 to 0.05 µM	Cc1ccc(C(=O)Nc2ccc(C(=O)N3CCc4c(sc(NC(=O)c5c(Cl)cccc5Cl)c4F)-c4ccccc43)cc2)c(N2CC3(CCOCC3)C2)n1 [Example 310]
< 0.01 µM	CCn1nccc1-c1cc2c(s1)-c1ccc(F)cc1N(C(=O)c1ccc(NC(=O)c3cc(C)cnc3N3CC4(CCOCC4)C3)cc1)CC2 [Example 171]
0.01 to 0.05 µM	Cc1cnc(N2CC3(CCOCC3)C2)c(C(=O)Nc2ccc(C(=O)N3CCc4cc(NC(=O)c5c(C)cccc5F)sc4-c4ccccc43)cc2)c1 [Example 281]
0.01 to 0.05 µM	Cc1cnc(N2CC3(CCOCC3)C2)c(C(=O)Nc2ccc(C(=O)N3CCc4cc(-c5ncc(C)o5)sc4-c4ccc(F)cc43)cc2)c1 [Example 156]
0.01 to 0.05 µM	Cc1cnc(N2CC3(CCOCC3)C2)c(C(=O)Nc2ccc(C(=O)N3CCc4cc(-c5nc(C)c(C)s5)sc4-c4ccc(F)cc43)cc2)c1 [Example 153]
< 0.01 µM	O=C(Nc1c(Cl)cccc1Cl)c1cc2c(o1)-c1ccccc1N(C(=O)c1ccc(NC(=O)c3cc4c(nc3N3CC5(CCOCC5)C3)CCC4)cc1)CC2 [Example 251]

Further lines, the molecule ahead of its results:

Compound	EC50
Cc1cnc(N2CC3(CCOCC3)C2)c(C(=O)Nc2ccc(C(=O)N3CCc4cc(C(=O)NC5CCS(=O)(=O)CC5)sc4-c4ccc(F)cc43)cc2)c1 [Example 122]	> 0.05 µM
Cc1cccc(F)c1NC(=O)c1cc2c(s1)-c1cc(F)c(F)cc1N(C(=O)c1ccc(NC(=O)c3cc(F)cnc3N3CC4(CCOCC4)C3)cc1)CC2 [Example 72]	0.01 to 0.05 µM
Cc1ccc(C(=O)Nc2ccc(C(=O)N3CCc4cc(C(=O)Nc5c(F)cccc5C(F)(F)F)sc4-c4ccc(F)cc43)cc2)c(N2CC3(CCOCC3)C2)n1 [Example 113]	< 0.01 µM
Cc1cnc(N2CC3(CCOCC3)C2)c(C(=O)Nc2ccc(C(=O)N3CCc4cc(C(=O)Nc5ncccc5C(F)(F)F)sc4-c4ccc(F)cc43)cc2)c1 [Example 119]	< 0.01 µM
O=C(Nc1ccc(C(=O)N2CCc3cc(-c4nc5ccccc5[nH]4)sc3-c3ccc(Cl)cc32)cc1)c1cccnc1N1CC2(CCOCC2)C1 [Example 82]	0.01 to 0.05 µM
O=C(Nc1c(F)cccc1F)c1cc2c(s1)-c1ccc(F)cc1N(C(=O)c1ccc(NC(=O)c3cccnc3N3CCOc4ccccc4C3)cc1)CC2 [Example 53]	> 0.05 µM
Cc1ccc(C(=O)Nc2ccc(C(=O)N3CCc4cc(C(=O)Nc5c(C)cccc5F)sc4-c4ccc(F)cc43)cc2)c(N2CC3(CCOCC3)C2)n1 [Example 112]	< 0.01 µM
Cc1cnc(N2CC3(CCOCC3)C2)c(C(=O)Nc2ccc(C(=O)N3CCc4cc(C(=O)NC5CCOCC5)sc4-c4ccc(F)cc43)cc2)c1 [Example 130]	< 0.01 µM
O=C(Nc1ccc(C(=O)N2CCc3cc(-c4nc5cccc(Cl)c5[nH]4)sc3-c3ccc(F)cc32)cc1)c1cc(F)cnc1N1CC2(CCOCC2)C1 [Example 44]	0.01 to 0.05 µM
Cc1cnc(N2CC3(CCOCC3)C2)c(C(=O)Nc2ccc(C(=O)N3CCc4cc(C(=O)NC5CCNC5)sc4-c4ccc(F)cc43)cc2)c1 (stereo not drawn) [Example 129]	> 0.05 µM
Cc1cnc(N2CC3(CCOCC3)C2)c(C(=O)Nc2ccc(C(=O)N3CCc4c(sc(C(=O)Nc5c(F)cc(F)cc5F)c4F)-c4ccccc43)cc2)c1 [Example 94]	< 0.01 µM
Cc1cnc(N2CC3(CCOCC3)C2)c(C(=O)Nc2ccc(C(=O)N3CCc4cc(C(=O)Nc5ncc(C)o5)sc4-c4ccc(F)cc43)cc2)c1 [Example 134]	< 0.01 µM
O=C(Nc1c(F)cccc1F)c1cc2c(s1)-c1ccc(Cl)cc1N(C(=O)c1ccc(NC(=O)c3cccnc3N3CC4(CCOCC4)C3)cc1)CC2 [Example 83]	< 0.01 µM
Cc1cnc(N2CC3(CCOCC3)C2)c(C(=O)Nc2ccc(C(=O)N3CCc4cc(C(=O)Nc5ccccc5F)sc4-c4ccc(F)cc43)cc2)c1 [Example 8]	< 0.01 µM
O=C(Nc1c(F)cccc1F)c1cc2c(s1)-c1ccc(F)cc1N(C(=O)c1ccc(NC(=O)c3cccnc3N3CC4CCCC4C3)cc1)CC2 (stereo not drawn) [Example 47]	0.01 to 0.05 µM
Cc1cnc(N2CC3(CCOCC3)C2)c(C(=O)Nc2ccc(C(=O)N3CCc4cc(NC(=O)Oc5ccccc5)sc4-c4ccccc43)cc2)c1 [Example 296]	0.01 to 0.05 µM
Cc1cnc(N2CC3(CCOCC3)C2)c(C(=O)Nc2ccc(C(=O)N3CCc4cc(C(=O)Nc5ncccc5F)sc4-c4ccc(F)cc43)cc2)c1 [Example 118]	< 0.01 µM
COc1ccc(C(=O)Nc2ccc(C(=O)N3CCc4cc(C(=O)Nc5c(F)cc(F)cc5Cl)sc4-c4ccc(F)cc43)cc2)c(N2CC3(CCOCC3)C2)n1 [Example 24]	0.01 to 0.05 µM
Cc1ccc(C(=O)Nc2ccc(C(=O)N3CCc4cc(C(=O)Nc5c(F)cc(F)cc5F)sc4-c4ccc(F)cc43)cc2)c(N2CC3(CCOCC3)C2)n1 [Example 111]	< 0.01 µM
O=C(Nc1c(F)cccc1F)c1cc2c(s1)-c1ccc(F)cc1N(C(=O)c1ccc(NC(=O)c3cc4ccccc4nc3N3CC4(CCOCC4)C3)cc1)CC2 [Example 16]	< 0.01 µM
CCS(=O)(=O)CCNc1ncccc1C(=O)Nc1ccc(C(=O)N2CCc3cc(C(=O)Nc4c(F)cccc4F)sc3-c3ccc(F)cc32)cc1 [Example 59]	> 0.05 µM
O=C(Nc1ccc(C(=O)N2CCc3cc(-c4nnco4)sc3-c3ccc(F)cc32)cc1)c1cccnc1N1CC2(CCOCC2)C1 [Example 142]	> 0.05 µM
Cc1cccc(F)c1NC(=O)c1sc2c(c1F)CCN(C(=O)c1ccc(NC(=O)c3cccnc3N3CC4(CCOCC4)C3)cc1)c1ccccc1-2 [Example 91]	< 0.01 µM
O=C(Nc1c(F)cc(F)cc1Cl)c1cc2c(s1)-c1ccc(F)cc1N(C(=O)c1ccc(NC(=O)c3cc(C(F)(F)F)cnc3N3CC4(CCOCC4)C3)cc1)CC2 [Example 29]	0.01 to 0.05 µM
Cc1cnc(N2CC3(CCOCC3)C2)c(C(=O)Nc2ccc(C(=O)N3CCc4cc(C(=O)Nc5nnc(C)s5)sc4-c4ccc(F)cc43)cc2)c1 [Example 133]	0.01 to 0.05 µM
Cc1cnc(N2CC3(CCOCC3)C2)c(C(=O)Nc2ccc(C(=O)N3CCc4cc(C(=O)Nc5c(Cl)cccc5Cl)sc4-c4ccc(F)cc43)cc2)c1 [Example 9]	< 0.01 µM
O=C(Nc1ccc(C(=O)N2CCc3cc(-c4nc5cccc(F)c5[nH]4)sc3-c3ccc(F)cc32)cc1)c1cc(F)cnc1N1CC2(CCOCC2)C1 [Example 43]	0.01 to 0.05 µM
